Legend:
[1] = Accelerated stability study of bupropion HBr, closed bottles, 40° C./75% RH, 3 and 6 months, HPLC; assay type: physicochemical; settings: Batch D00896, 40° C., R.H. 75%; for Chromatographic purity B) (HPLC) 4) 2-N-(tert-Butyl)-aminopropiophenone / Chromatographic purity B) (HPLC) 5) single unknown impurity (each): LOQ 0.02%, LOD 0.002%; for Chromatographic purity A) (HPLC) 1) 3′-Chloropropiophenone / Chromatographic purity A) (HPLC) 3) 3′-Chlorobenzoic acid / Chromatographic purity A) (HPLC) 2) 3′-Chloro-2-bromopropiophenone: LOQ 0.05%; for Chromatographic purity A) (HPLC) 1) 3′-Chloropropiophenone / Chromatographic purity A) (HPLC) 3) 3′-Chlorobenzoic acid: LOD 0.01%; for Chromatographic purity A) (HPLC) 2) 3′-Chloro-2-bromopropiophenone: LOD 0.04%
Method: The samples were prepared in closed bottles and placed in the stability chamber. HPLC analysis was conducted on the samples prior to placing them in the stability chamber (time 0), and after 3 months and 6 months. The amounts of the main degradation products present at time 0 were compared with those amounts present after 3 months and 6 months. […] For each sample tested, at each time period, two different HPLC assays were run. The first assay labelled chromatographic purity A, measured the percentage of three impurities 3′chloropropiophenone, 3′-Chloro-2-bromopropiophenone and 3′-Chlorobenzoic acid. The second assay, labelled chromatographic purity B, measured the percentage of 2-N-(tert-Butyl)-aminopropiophenone, a single unknown impurity and the total unknown impurities.

[2] = Shelf life stability program of bupropion HBr, 25° C./60% RH, 3 and 6 months, HPLC; assay type: physicochemical; settings: Batch D00894, 25° C., R.H. 60%; for Chromatographic purity B) (HPLC) 4) 2-N-(tert-Butyl)-aminopropiophenone / Chromatographic purity B) (HPLC) 5) single unknown impurity (each): LOQ 0.02%, LOD 0.002%; for Chromatographic purity A) (HPLC) 1) 3′-Chloropropiophenone / Chromatographic purity A) (HPLC) 3) 3′-Chlorobenzoic acid / Chromatographic purity A) (HPLC) 2) 3′-Chloro-2-bromopropiophenone: LOQ 0.05%; for Chromatographic purity A) (HPLC) 1) 3′-Chloropropiophenone / Chromatographic purity A) (HPLC) 3) 3′-Chlorobenzoic acid: LOD 0.01%; for Chromatographic purity A) (HPLC) 2) 3′-Chloro-2-bromopropiophenone: LOD 0.04%
Method: The stability of bupropion HBr was studied over a longer term under conditions meant to approximate standard storage or shelf conditions. Samples were prepared in closed containers and subjected to long-term storage at 25° C.+2° C. and 60%+5% RH in a stability chamber. The samples were analyzed by HPLC prior to being placed in the stability chamber (time 0) and after 3 months and 6 months. The amounts of the main degradation products present at time 0 were compared with the amounts present at 3 months and 6 months. As shown in Table 77-79 three different batches of bupropion HBr were tested. As in Example 10 each sample was tested under two HPLC assay conditions to identify 6 impurities or groups of impurities as described in Example 10.

In the case of `Br.CC(NC(C)(C)C)C(=O)c1cccc(Cl)c1` (stereo not drawn) [Bupropion•HBr], the “Assay (HPLC)” value ([1]; 3 month) was 100.0 % on d.b, the “Chromatographic purity (HPLC: A + B) Total impurities” value ([1]; 3 month) was 0.1% and the “Chromatographic purity B) (HPLC) 6) total unknown impurities” value ([1]; 3 month) was 6) 0.05%. The “Description (white or almost white crystalline powder)” value (shortened to “Description”) ([1]; 3 month) was “conform”, the “Identification IR, HPLC” value ([1]; 3 month) was “positive” and the “Water content (K.F.)” value ([1]; 3 month) was 0.11%. For the same molecule, the “Chromatographic purity B) (HPLC) 4) 2-N-(tert-Butyl)-aminopropiophenone” value ([1]; 3 month) was 4) 0.03%, the “Chromatographic purity B) (HPLC) 5) single unknown impurity (each)” value ([1]; 3 month) was 5) 0.04% and the “Chromatographic purity A) (HPLC) 1) 3′-Chloropropiophenone” value ([1]; 3 month) was 1) n.q. The “Chromatographic purity A) (HPLC) 3) 3′-Chlorobenzoic acid” value ([1]; 3 month) was 3) n.q, the “Chromatographic purity A) (HPLC) 2) 3′-Chloro-2-bromopropiophenone” value ([1]; 3 month) was 2) n.d and the “Assay (HPLC)” value ([1]; 6 months) was 100.4 % on d.b. The “Chromatographic purity (HPLC: A + B) Total impurities” value ([1]; 6 months) was 0.1%, the “Chromatographic purity B) (HPLC) 6) total unknown impurities” value ([1]; 6 months) was 6) n.q and the “Description” value ([1]; 6 months) was “conform”. The “Identification IR, HPLC” value ([1]; 6 months) was “positive”, the “Water content (K.F.)” value ([1]; 6 months) was 0.04% and the “Chromatographic purity B) (HPLC) 4) 2-N-(tert-Butyl)-aminopropiophenone” value ([1]; 6 months) was 4) 0.04%. The “Chromatographic purity B) (HPLC) 5) single unknown impurity (each)” value ([1]; 6 months) was 5) n.q, the “Chromatographic purity A) (HPLC) 1) 3′-Chloropropiophenone” value ([1]; 6 months) was 1) 0.05% and the “Chromatographic purity A) (HPLC) 3) 3′-Chlorobenzoic acid” value ([1]; 6 months) was 3) n.q. For the same molecule, the “Chromatographic purity A) (HPLC) 2) 3′-Chloro-2-bromopropiophenone” value ([1]; 6 months) was 2) n.d, the “Assay (HPLC)” value ([1]; Time 0) was 99.3 % on d.b and the “Chromatographic purity (HPLC: A + B) Total impurities” value ([1]; Time 0) was 0.1%. For the same molecule, the “Chromatographic purity B) (HPLC) 6) total unknown impurities” value ([1]; Time 0) was 6) 0.05%, the “Description” value ([1]; Time 0) was “conform” and the “Identification IR, HPLC” value ([1]; Time 0) was “positive”. For the same molecule, the “Water content (K.F.)” value ([1]; Time 0) was 0.06%, the “Chromatographic purity B) (HPLC) 4) 2-N-(tert-Butyl)-aminopropiophenone” value ([1]; Time 0) was 4) 0.04% and the “Chromatographic purity B) (HPLC) 5) single unknown impurity (each)” value ([1]; Time 0) was 5) 0.05%. The “Chromatographic purity A) (HPLC) 1) 3′-Chloropropiophenone” value ([1]; Time 0) was 1) n.d, the “Chromatographic purity A) (HPLC) 3) 3′-Chlorobenzoic acid” value ([1]; Time 0) was 3) n.q and the “Chromatographic purity A) (HPLC) 2) 3′-Chloro-2-bromopropiophenone” value ([1]; Time 0) was 2) n.d. The “Assay (HPLC)” value ([2]; 3 months) was 99.4 % on d.b, the “Chromatographic purity (HPLC: A + B) Total impurities” value ([2]; 3 months) was 0.1% and the “Chromatographic purity B) (HPLC) 6) total unknown impurities” value ([2]; 3 months) was 6) 0.05%. For the same molecule, the “Description” value ([2]; 3 months) was “conform”, the “Identification IR, HPLC” value ([2]; 3 months) was “positive” and the “Water content (K.F.)” value ([2]; 3 months) was 0.05%. The “Chromatographic purity B) (HPLC) 4) 2-N-(tert-Butyl)-aminopropiophenone” value ([2]; 3 months) was 4) 0.03%, the “Chromatographic purity B) (HPLC) 5) single unknown impurity (each)” value ([2]; 3 months) was 5) 0.04% and the “Chromatographic purity A) (HPLC) 1) 3′-Chloropropiophenone” value ([2]; 3 months) was 1) n.q. The “Chromatographic purity A) (HPLC) 3) 3′-Chlorobenzoic acid” value ([2]; 3 months) was 3) n.q, the “Chromatographic purity A) (HPLC) 2) 3′-Chloro-2-bromopropiophenone” value ([2]; 3 months) was 2) n.d and the “Assay (HPLC)” value ([2]; 6 months) was 100.2 % on d.b. For the same molecule, the “Chromatographic purity (HPLC: A + B) Total impurities” value ([2]; 6 months) was 0.1%, the “Chromatographic purity B) (HPLC) 6) total unknown impurities” value ([2]; 6 months) was 6) 0.02% and the “Description” value ([2]; 6 months) was “conform”. For the same molecule, the “Identification IR, HPLC” value ([2]; 6 months) was “positive”, the “Water content (K.F.)” value ([2]; 6 months) was 0.06% and the “Chromatographic purity B) (HPLC) 4) 2-N-(tert-Butyl)-aminopropiophenone” value ([2]; 6 months) was 4) 0.05%. The “Chromatographic purity B) (HPLC) 5) single unknown impurity (each)” value ([2]; 6 months) was 5) n.q, the “Chromatographic purity A) (HPLC) 1) 3′-Chloropropiophenone” value ([2]; 6 months) was 1) 0.05% and the “Chromatographic purity A) (HPLC) 3) 3′-Chlorobenzoic acid” value ([2]; 6 months) was 3) n.q. The “Chromatographic purity A) (HPLC) 2) 3′-Chloro-2-bromopropiophenone” value ([2]; 6 months) was 2) n.d, the “Assay (HPLC)” value ([2]; 9 months) was 99.5 % on d.b and the “Chromatographic purity (HPLC: A + B) Total impurities” value ([2]; 9 months) was “n.q”. The “Chromatographic purity B) (HPLC) 6) total unknown impurities” value ([2]; 9 months) was 6) n.q, the “Description” value ([2]; 9 months) was “conform” and the “Identification IR, HPLC” value ([2]; 9 months) was “positive”. The “Water content (K.F.)” value ([2]; 9 months) was 0.05%, the “Chromatographic purity B) (HPLC) 4) 2-N-(tert-Butyl)-aminopropiophenone” value ([2]; 9 months) was 4) n.d and the “Chromatographic purity B) (HPLC) 5) single unknown impurity (each)” value ([2]; 9 months) was 5) n.q. The “Chromatographic purity A) (HPLC) 1) 3′-Chloropropiophenone” value ([2]; 9 months) was 1) n.q, the “Chromatographic purity A) (HPLC) 3) 3′-Chlorobenzoic acid” value ([2]; 9 months) was 3) n.q and the “Chromatographic purity A) (HPLC) 2) 3′-Chloro-2-bromopropiophenone” value ([2]; 9 months) was 2) n.d.
